Results as given in ChEMBL document CHEMBL1201862, “PubChem BioAssay data set” (2004).
Activity calls are given as the source filed them.

Key:
SUMO-activating enzyme = SUMO-activating enzyme (Homo sapiens, UniProt Q9UBT2); assay: blockers of UBC9-mediated SUMO conjugation – biochemical, AlphaScreen, SUMOylation inhibitor project, confirmation (AID 2018); type: functional
[1] = biological target: Intestinal-type alkaline phosphatase (Mus musculus, UniProt P24822); assay: PubChem AID 488785; type: functional
[2] = biological target: T1, Alkaline phosphatase, tissue-nonspecific isozyme (Homo sapiens, UniProt P05186); assay: activation of tissue-nonspecific alkaline phosphatase – biochemical, TNAP isozyme, mouse IAP uHTS hits, selectivity assay for mouse IAP activator project, dose response (AID 488880); type: functional
T1 sequence (P05186 whole entry): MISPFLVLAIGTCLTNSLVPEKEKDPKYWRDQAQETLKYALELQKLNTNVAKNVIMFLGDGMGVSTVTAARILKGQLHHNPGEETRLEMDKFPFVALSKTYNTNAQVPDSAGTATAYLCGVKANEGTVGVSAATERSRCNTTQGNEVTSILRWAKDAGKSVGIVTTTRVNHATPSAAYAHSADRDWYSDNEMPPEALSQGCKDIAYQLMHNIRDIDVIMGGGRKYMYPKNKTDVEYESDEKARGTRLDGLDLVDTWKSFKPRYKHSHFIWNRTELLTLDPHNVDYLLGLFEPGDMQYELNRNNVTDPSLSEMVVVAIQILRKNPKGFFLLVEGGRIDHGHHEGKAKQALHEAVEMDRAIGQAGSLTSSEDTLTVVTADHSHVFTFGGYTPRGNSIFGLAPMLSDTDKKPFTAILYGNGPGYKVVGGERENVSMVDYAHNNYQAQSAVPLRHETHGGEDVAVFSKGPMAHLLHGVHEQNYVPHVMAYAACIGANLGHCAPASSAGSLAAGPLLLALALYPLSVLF

[3] = biological target: Intestinal-type alkaline phosphatase (Homo sapiens, UniProt P09923); assay: inhibition of human intestinal alkaline phosphatase – biochemical, dose response (AID 488876); type: functional
[4] = biological target: T2, G-protein coupled receptor 55 (Homo sapiens, UniProt Q9Y2T6); assay: selective activators of receptor GPR55 – imaging, U2OS cells, beta-arrestin-GFP redistribution, primary screen (AID 1961); type: functional
T2 sequence (Q9Y2T6 whole entry): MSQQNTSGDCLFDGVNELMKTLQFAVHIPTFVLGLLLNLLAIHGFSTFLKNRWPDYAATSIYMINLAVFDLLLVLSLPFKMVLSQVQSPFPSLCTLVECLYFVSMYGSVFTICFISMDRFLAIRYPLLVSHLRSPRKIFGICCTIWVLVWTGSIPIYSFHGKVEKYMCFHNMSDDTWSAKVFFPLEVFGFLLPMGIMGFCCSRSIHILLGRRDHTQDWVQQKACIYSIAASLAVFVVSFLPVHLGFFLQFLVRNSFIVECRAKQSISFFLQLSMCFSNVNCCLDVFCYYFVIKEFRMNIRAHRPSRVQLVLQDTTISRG

Cannabinoid receptor 2 [5] = biological target: T3, Cannabinoid receptor 2 (Homo sapiens, UniProt P34972); assay: SAR analysis of antagonists of the Cannabinoid Receptor 2 using an Image-Based Assay - Set 2. [Related pubchem assays (depositor defined):AID1961, AID1965]; type: functional
T3 sequence (P34972 whole entry): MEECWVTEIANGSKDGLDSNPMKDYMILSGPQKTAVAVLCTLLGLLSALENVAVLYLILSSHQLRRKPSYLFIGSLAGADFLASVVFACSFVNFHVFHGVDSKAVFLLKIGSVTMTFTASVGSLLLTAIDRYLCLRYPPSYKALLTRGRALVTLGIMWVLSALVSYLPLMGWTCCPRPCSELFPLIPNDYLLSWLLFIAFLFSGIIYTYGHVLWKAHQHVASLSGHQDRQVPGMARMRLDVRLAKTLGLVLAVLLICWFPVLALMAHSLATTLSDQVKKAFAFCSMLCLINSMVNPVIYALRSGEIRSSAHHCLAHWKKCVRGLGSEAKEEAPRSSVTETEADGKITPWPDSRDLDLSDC

Cannabinoid receptor 2 [6] = biological target: T3, Cannabinoid receptor 2; assay: SAR analysis of agonists of the Cannabinoid Receptor 2 using an Image-Based Assay - Set 2. [Related pubchem assays (depositor defined):AID1961, AID1965]; type: functional
[7] = biological target: T2, G-protein coupled receptor 55; assay: SAR analysis of selective Agonists of GPR55 using an Image-Based Assay. [Related pubchem assays (depositor defined):AID1961, AID1965]; type: functional
Cannabinoid receptor 1 = Cannabinoid receptor 1 (Homo sapiens, UniProt P21554); assay: SAR analysis of antagonists of the Cannabinoid Receptor 1 using an Image-Based Assay. [Related pubchem assays (depositor defined):AID1961, AID1965]; type: functional
Cannabinoid receptor 1, sequence (P21554 whole entry): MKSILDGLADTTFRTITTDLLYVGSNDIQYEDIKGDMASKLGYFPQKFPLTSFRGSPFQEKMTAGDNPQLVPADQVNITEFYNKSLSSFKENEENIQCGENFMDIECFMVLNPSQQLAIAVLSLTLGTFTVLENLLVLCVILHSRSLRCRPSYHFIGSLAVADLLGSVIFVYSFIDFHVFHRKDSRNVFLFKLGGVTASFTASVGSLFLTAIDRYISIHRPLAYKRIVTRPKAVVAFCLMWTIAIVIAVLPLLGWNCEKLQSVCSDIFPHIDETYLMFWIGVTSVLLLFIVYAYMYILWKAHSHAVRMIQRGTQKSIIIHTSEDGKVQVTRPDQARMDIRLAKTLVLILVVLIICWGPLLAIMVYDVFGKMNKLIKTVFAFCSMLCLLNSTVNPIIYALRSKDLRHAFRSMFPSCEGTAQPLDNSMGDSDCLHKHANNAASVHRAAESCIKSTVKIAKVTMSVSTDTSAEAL

[8] = test system: Streptococcus sp. 'group A'; assay: Streptococcus pyogenes SK(-)GAS viability under kanamycin – luminescence, BacTiterGlo, confirmation, counter-screen for streptokinase expression inhibitor project, dose response (AID 1900); type: functional, organism-based
Streptokinase A = biological target: T4, Streptokinase A (Streptococcus pyogenes serotype M1, UniProt P10520); assay: viability-normalized secreted streptokinase activity reduction – plasminogen activation absorbance, OD405, dose response (AID 1914); type: functional, Streptococcus pyogenes M1 GAS;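 further: secreted streptokinase activity via plasminogen activation per viability signal from cell pellet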
T4 sequence (P10520 whole entry): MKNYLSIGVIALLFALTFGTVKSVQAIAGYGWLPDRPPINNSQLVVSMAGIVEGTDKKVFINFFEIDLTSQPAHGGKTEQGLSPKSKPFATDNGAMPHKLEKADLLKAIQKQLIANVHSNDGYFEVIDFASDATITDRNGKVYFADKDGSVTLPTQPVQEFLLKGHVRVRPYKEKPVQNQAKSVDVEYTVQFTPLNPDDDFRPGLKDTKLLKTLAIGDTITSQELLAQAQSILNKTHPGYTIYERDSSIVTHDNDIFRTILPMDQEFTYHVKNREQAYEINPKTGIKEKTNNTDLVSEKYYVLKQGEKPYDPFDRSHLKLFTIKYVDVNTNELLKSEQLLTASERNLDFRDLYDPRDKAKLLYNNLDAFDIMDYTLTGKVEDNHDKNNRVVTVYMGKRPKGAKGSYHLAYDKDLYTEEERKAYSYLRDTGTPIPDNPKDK

[9] = viability of PTEN-deleted HCT116 cells – cell-based, HCT116 PTEN knockout, dose response (AID 1047); type: functional;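 further: HCT116 colon tumor cells with PTEN knocked out; cells exposed to compound for 60 hours before readout; potency for loss of cell viability measured by luminescence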
[10] = viability of HCT116 lacking mutant beta-catenin – cell-based, human colon tumor, dose response (AID 1045); type: functional;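 further: HCT116 colon tumor cells with beta catenin knocked out; cells exposed to compound for 60 hours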
Streptococcus = assay: GAS UMAA2166 growth inhibition – luminescence, BacTiterGlo, counter-screen for streptokinase expression inhibitor project, dose response (AID 1915); type: functional, organism-based;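 further: potency for reduction of bacterial viability or growth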
[11] = Luminescence Cell-Based Dose Retest to Confirm Inhibitors of Cancer Stem Cells. [Related pubchem assays (depositor defined):AID2717, AID2721]; type: functional; settings: Homo sapiens
Mu-type opioid receptor [12] = biological target: T5, Mu-type opioid receptor (Homo sapiens, UniProt P35372); assay: mu opioid receptor activators, image-based, SAR follow-up (AID 2352); type: functional
T5 sequence (P35372 whole entry): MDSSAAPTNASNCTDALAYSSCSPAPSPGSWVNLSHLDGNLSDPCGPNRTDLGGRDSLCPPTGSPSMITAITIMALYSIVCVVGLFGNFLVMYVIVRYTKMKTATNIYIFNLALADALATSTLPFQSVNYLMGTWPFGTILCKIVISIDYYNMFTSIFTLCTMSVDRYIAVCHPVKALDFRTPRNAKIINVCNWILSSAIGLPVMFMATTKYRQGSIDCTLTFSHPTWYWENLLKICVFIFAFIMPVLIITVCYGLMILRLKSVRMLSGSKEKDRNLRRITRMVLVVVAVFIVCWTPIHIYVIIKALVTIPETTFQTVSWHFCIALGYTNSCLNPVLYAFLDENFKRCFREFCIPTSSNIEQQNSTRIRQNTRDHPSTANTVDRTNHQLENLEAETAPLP

[13] = biological target: T6, Delta-type opioid receptor (Homo sapiens, UniProt P41143); assay: DOR agonists, SAR follow-up, image-based (AID 2370); type: functional
T6 sequence (P41143 whole entry): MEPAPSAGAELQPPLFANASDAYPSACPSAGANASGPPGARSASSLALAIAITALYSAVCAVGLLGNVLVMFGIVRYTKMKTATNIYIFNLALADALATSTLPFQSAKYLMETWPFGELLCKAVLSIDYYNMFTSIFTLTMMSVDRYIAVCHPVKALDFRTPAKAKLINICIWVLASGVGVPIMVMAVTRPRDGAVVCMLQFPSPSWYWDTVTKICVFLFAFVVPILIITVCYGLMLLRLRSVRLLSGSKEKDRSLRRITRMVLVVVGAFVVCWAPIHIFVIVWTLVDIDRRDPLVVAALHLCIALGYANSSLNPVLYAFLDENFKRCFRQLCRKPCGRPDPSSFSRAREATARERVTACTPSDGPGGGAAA

[14] = biological target: T7, Kappa-type opioid receptor (Homo sapiens, UniProt P41145); assay: kappa opioid receptor blockers, image-based, SAR follow-up (AID 2348); type: functional
T7 sequence (P41145 whole entry): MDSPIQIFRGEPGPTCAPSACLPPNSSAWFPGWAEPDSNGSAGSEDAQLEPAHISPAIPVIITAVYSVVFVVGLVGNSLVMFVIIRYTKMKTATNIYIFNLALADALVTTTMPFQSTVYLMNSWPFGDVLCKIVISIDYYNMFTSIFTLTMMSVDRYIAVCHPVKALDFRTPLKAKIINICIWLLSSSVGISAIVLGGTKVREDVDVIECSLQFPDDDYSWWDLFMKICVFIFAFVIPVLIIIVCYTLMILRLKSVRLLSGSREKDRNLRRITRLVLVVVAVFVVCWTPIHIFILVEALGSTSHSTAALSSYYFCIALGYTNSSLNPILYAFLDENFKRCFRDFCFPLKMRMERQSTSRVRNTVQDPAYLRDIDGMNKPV

Mu-type opioid receptor [15] = biological target: T5, Mu-type opioid receptor; assay: mu opioid receptor blockers – image-based, SAR follow-up (AID 2420); type: functional;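 further: compounds added before stimulation of receptor with agonist DAMGO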
[16] = biological target: T7, Kappa-type opioid receptor; assay: kappa opioid receptor activation potency – imaging, image-based, SAR follow-up (AID 2359); type: functional
[17] = biological target: T8, Tyrosine-protein phosphatase non-receptor type 7 (Homo sapiens, UniProt P35236); assay: SAR analysis of chemical inhibitors of HePTP using a Fluorescent assay - Set 2. [Related pubchem assays (depositor defined):AID1059, AID1077, AID1661, AID2085, AID521]; type: functional
T8 sequence (P35236 whole entry): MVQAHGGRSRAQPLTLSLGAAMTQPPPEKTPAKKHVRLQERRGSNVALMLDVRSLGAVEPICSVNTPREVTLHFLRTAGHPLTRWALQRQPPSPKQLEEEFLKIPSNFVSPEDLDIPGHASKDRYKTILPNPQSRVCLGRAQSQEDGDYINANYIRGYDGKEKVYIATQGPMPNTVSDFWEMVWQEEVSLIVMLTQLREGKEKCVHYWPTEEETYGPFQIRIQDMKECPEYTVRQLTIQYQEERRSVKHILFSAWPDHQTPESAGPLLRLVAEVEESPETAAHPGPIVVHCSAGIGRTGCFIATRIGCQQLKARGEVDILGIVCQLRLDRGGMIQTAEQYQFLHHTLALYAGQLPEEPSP

[18] = biological target: Dual specificity protein phosphatase 3 (Homo sapiens, UniProt P51452); assay: SAR VHR1 Fluorescent Assay for In Vitro dose response studies Set 2. [Related pubchem assays (depositor defined):AID1654, AID1661, AID1878]; type: functional
Dual specificity protein phosphatase 3, sequence (P51452 whole entry): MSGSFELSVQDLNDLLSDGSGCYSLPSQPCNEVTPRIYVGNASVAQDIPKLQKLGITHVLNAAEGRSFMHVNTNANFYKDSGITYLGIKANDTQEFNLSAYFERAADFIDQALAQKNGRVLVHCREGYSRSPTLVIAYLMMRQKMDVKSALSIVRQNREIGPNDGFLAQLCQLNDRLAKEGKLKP

[19] = biological target: T6, Delta-type opioid receptor; assay: delta opioid receptor blockers – image-based, SAR follow-up (AID 2357); type: functional
[20] = biological target: T7, Kappa-type opioid receptor; assay: kappa opioid receptor blockers, cell-based, luminescence, beta-arrestin, SAR follow-up (AID 2285); type: functional
[21] = potency of ADAM10 substrate cleavage blockers – biochemical, QFRET, dose response (AID 743254);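 further: ADAM10 enzyme with the DM2 quenched FRET peptide as substrate; EDANS fluorescence gain as the protease cuts the substrate; inhibitor potency against ADAM10 proteolytic activity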
[22] = biological target: Disintegrin and metalloproteinase domain-containing protein 17 (Homo sapiens, UniProt P78536); assay: inhibition of ADAM17 substrate cleavage – biochemical, quenched FRET substrate, counter-screen for ADAM10 exosite inhibitor project, dose response (AID 743253)
[23] = biological target: T6, Delta-type opioid receptor; assay: HTS Image-Based Screen for Antagonists of the DOR Receptor. [Related pubchem assays (depositor defined):AID1777, AID1785, AID1786, AID2133]; type: functional
Mu-type opioid receptor [24] = biological target: T5, Mu-type opioid receptor; assay: HTS Image-Based Screen for Agonists of the MOR Receptor. [Related pubchem assays (depositor defined):AID1777, AID1785, AID1786, AID2133]; type: functional
[25] = biological target: T6, Delta-type opioid receptor; assay: HTS Image-Based Screen for Agonists of the DOR Receptor. [Related pubchem assays (depositor defined):AID1777, AID1786, AID2133]; type: functional
[26] = biological target: T7, Kappa-type opioid receptor; type: functional
Beta-galactosidase = Beta-galactosidase (Escherichia coli, UniProt Q8VNN2); type: functional
Beta-galactosidase, sequence (Q8VNN2 whole entry): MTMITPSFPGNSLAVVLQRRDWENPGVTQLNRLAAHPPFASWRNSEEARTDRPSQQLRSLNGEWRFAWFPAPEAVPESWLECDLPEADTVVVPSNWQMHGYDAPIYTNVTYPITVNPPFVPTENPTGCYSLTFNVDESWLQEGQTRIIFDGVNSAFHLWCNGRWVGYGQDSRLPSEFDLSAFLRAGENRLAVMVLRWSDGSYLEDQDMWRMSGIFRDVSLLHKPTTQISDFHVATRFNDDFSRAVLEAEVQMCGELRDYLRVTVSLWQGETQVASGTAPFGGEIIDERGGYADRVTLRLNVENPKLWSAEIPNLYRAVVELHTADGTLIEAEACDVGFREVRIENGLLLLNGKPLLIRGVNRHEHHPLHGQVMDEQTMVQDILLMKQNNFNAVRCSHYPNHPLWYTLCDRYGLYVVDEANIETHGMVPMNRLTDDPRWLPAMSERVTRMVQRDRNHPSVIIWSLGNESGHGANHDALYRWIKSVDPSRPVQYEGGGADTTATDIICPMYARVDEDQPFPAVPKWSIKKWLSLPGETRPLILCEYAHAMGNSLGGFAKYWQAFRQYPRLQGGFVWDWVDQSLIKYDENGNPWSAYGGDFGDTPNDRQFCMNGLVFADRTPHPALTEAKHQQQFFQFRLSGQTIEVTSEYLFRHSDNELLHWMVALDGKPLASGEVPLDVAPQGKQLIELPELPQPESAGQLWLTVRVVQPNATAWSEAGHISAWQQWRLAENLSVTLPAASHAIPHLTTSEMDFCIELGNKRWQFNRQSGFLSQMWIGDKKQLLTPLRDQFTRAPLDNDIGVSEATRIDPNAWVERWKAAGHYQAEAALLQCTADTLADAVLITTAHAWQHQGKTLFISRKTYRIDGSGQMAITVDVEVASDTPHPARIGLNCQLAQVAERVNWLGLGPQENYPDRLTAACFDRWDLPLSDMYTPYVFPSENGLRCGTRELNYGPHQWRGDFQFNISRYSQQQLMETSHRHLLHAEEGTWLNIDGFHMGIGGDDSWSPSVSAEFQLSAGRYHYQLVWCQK

[27] = biological target: T7, Kappa-type opioid receptor; type: functional; remark: listed apart in the source
Tumor necrosis factor = Tumor necrosis factor (Homo sapiens, UniProt P01375); assay: analog potency on TNFa NF-kB signaling – cell-based, revised, SAR follow-up (AID 2337); type: functional
Tumor necrosis factor, sequence (P01375 whole entry): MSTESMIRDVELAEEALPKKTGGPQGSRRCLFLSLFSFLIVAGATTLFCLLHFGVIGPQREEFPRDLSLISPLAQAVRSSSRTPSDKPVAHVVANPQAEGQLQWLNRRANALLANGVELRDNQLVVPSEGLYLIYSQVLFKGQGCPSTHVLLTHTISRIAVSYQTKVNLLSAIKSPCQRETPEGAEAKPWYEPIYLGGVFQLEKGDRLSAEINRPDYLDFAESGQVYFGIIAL

HEK293 = assay: cells; settings: Homo sapiens;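 further: cells exposed to compound for 14 hours overnight before viability readout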
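Wherever AC50 is given: cells exposed to compound for roughly 70 hours or longer before luminescence read.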

SUMO-activating enzyme, sequence (Q9UBE0 whole entry): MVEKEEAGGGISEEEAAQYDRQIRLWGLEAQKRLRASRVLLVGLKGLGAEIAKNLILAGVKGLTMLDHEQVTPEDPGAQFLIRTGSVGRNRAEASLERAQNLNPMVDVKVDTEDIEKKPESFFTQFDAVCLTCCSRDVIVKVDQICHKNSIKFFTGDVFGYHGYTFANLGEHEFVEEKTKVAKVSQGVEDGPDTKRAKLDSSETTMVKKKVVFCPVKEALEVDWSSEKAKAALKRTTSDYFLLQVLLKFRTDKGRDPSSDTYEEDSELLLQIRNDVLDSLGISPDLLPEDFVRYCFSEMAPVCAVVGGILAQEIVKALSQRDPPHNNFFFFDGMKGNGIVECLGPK
SUMO-activating enzyme, sequence (Q9UBT2 whole entry): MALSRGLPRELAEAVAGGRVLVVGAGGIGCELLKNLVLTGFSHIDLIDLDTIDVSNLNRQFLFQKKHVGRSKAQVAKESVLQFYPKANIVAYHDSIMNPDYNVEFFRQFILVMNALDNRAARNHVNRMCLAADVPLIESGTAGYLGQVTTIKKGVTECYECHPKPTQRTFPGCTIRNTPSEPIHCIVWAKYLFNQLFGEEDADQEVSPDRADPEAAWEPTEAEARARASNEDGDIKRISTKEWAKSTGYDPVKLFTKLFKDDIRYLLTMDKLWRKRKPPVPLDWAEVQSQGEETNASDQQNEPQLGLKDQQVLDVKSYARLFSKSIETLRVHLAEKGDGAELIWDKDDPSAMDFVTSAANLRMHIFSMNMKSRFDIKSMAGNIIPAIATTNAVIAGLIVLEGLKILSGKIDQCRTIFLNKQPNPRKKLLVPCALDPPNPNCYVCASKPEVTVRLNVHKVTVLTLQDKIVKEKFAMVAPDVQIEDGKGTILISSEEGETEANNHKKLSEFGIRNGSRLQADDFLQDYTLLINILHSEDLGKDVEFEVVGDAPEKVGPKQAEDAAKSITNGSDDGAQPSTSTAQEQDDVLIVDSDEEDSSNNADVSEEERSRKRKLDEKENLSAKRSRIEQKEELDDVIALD

**Q.** For CCCCCn1c(N)c(C#N)c2nc3ccccc3nc21, which IC50 (SUMO-activating enzyme) is on record?
**A.** 15.7 µM (active)

**Q.** Which results are given for N#Cc1cccc(NC(=O)CCNS(=O)(=O)c2ccc3nc(O)oc3c2)c1?
**A.** IC50 [1]: 21.7 µM (active); EC50 [2]: > 100 µM (inactive); IC50 [3]: > 100 µM (inactive)

**Q.** What does the source list for Cc1cccc(N2CCN(C(=O)c3cc(S(=O)(=O)N(C)C)ccc3N3CCCC3)CC2)c1C?
**A.** EC50 [4]: 0.508 µM (active); IC50 (Cannabinoid receptor 2 [5]): 15.1 µM (inactive); EC50 (Cannabinoid receptor 2 [6]): > 32 µM (inactive); EC50 [7]: 0.263 µM (active); IC50 (Cannabinoid receptor 1): 21.7 µM (inactive)

**Q.** Which results are given for O=C(NC(NC(=S)Nc1cccc(Cl)c1)C(Cl)(Cl)Cl)OCc1ccccc1 (centres undefined)?
**A.** EC50 [8]: 3.59 µM (active); EC50 (Streptokinase A): 3.92 µM (active); EC50 [9]: 19.7 µM (active); EC50 [10]: 19.6 µM (active); EC50 (Streptococcus): 5.92 µM (active); AC50 [11]: 1.53 µM (active); EC50 (Mu-type opioid receptor [12]): > 32 µM (inactive); EC50 [13]: > 32 µM (inactive); IC50 [14]: 12.3 µM (inactive); IC50 (Mu-type opioid receptor [15]): > 32 µM (inactive); EC50 [16]: > 32 µM (inactive); IC50 [17]: 87 µM (active); IC50 [18]: > 100 µM (inactive); IC50 [19]: 24.4 µM (inactive); IC50 [20]: > 10 µM (inactive); IC50 [21]: > 7.72 µM (active); IC50 [22]: > 69.5 µM (inactive)

**Q.** What does the source list for Cc1cn(-c2cc(NC(=O)c3ccc(C)c(NC(=O)c4cccc(-c5cnnc(O)c5)c4)c3)cc(C(F)(F)F)c2)cn1?
**A.** IC50 [23]: > 32 µM (inactive); EC50 (Mu-type opioid receptor [24]): > 32 µM (inactive); EC50 [25]: > 32 µM (inactive); IC50 [26]: 9.01 µM (active); EC50 (Beta-galactosidase): > 31.5 µM (inactive); IC50 [27]: 5.1 µM

**Q.** What does the source list for CC(=O)c1ccc(N2CCN(S(=O)(=O)c3ccc4c(c3)CCN4C(=O)C3CC3)CC2)cc1?
**A.** IC50 (Tumor necrosis factor): 16.6 µM (active); IC50 (HEK293): > 20 µM (inactive)
